The nature of data set [1]: Solubility, shake-flask method. Format: physicochemical. The note with it: thermodynamic from solid. How it is done:
Standardized in vitro ADME experiments were performed by Eurofins Cerep (Poitiers, France). Solubility assays were performed in PBS at pH 7.4, but also in simulated gastric fluid (SGF) and intestinal fluid (SIF), through the classical shake-flask method according to Lipinski et al. using HPLC-UV/VIS technology. Results were expressed in µM.

The target in data set [2] is T1, CYP2C8 (Homo sapiens, UniProt P10632).
T1 construct: tissue Eurofins Cerep (CRO); host or cells: human liver microsomes
Nature of the data set: CYP inhibition in human liver microsomes. Format: in vitro ADME. The note with it: read-out: CYPs inhibition CYP2C8. How it is done: (§1) The compound was classically evaluated at 10 µM for all the ADME analyses. Bidirectional permeability (apical A to basolateral B pH 6.5/7.4 and basolateral B to apical A pH 7.4/6.5) was assessed in the epithelial colorectal adenocarcinoma cell line (Caco-2 cell line). Results were expressed as × 10^−6cm/s (Papp) and as % recovery. Efflux ratio, i.e., Papp(B-A)/Papp(A-B), was calculated. Plasma protein binding was analyzed by HPLC-MS/MS after 4-h incubation at 37 °C, as described by Banker et al.. Concentration was evaluated by LC/MS-MS. CYP inhibition was performed in human liver microsomes as described in [61]. Analysis of the respective metabolites. was performed by HPLC-MS/MS. Transporter inhibition analysis was also performed in overexpressing cell lines. Respective metabolites for each specific transporter substrate were analyzed by fluorometry or scintillation counting and % inhibition of control values were calculated. P-glycoprotein transporter substrate assessment was performed by bidirectional permeability analysis (apical A to basolateral B pH 7.4/7.4 and basolateral B to apical A pH 7.4/7.4) in the Caco-2 cell line with and without verapamil, as described in [59]. Results were expressed as ×10^−6 cm/s (Papp) and as % recovery. The efflux ratio, i.e., Papp(B-A)/Papp(A-B), was calculated. CYP450 induction characterization was performed on human hepatocytes. The mRNA levels of 7 different CYPs were analyzed by qPCR, as described in [72]. The compound was evaluated at 1, 10 and 100 µM. Fold-induction values were determined and compared to cut-off values, as defined for each CYP isozyme in each hepatocyte lot.

Data set [3] deals with T2, CYP2C9 (Homo sapiens, UniProt P11712).
T2 construct: tissue Eurofins Cerep (CRO); host or cells: human liver microsomes
T2 sequence (P11712 whole entry): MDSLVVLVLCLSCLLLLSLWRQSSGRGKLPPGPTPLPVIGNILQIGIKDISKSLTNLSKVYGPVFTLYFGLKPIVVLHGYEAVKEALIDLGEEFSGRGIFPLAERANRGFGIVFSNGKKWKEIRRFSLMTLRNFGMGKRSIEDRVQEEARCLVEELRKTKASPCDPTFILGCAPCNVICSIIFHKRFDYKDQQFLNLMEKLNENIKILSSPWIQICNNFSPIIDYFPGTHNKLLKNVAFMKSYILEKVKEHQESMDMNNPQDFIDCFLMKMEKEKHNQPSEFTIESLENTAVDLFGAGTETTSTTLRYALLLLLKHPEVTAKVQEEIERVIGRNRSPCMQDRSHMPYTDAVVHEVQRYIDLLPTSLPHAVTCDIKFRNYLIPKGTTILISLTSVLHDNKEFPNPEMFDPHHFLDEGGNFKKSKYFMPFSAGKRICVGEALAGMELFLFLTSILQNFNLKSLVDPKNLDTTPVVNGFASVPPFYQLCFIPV
Nature of the data set: CYP inhibition in human liver microsomes. The note with it: read-out: CYPs inhibition CYP2C9. Type of data set: in vitro ADME. On the procedure:
as §1

Data set [4] concerns the target T3, CYP2C19 (Homo sapiens, UniProt P33261).
T3 construct: tissue Eurofins Cerep (CRO); host or cells: human liver microsomes
Put plainly: CYP inhibition in human liver microsomes. Type of data set: in vitro ADME. The note with it: read-out: CYPs inhibition CYP2C19. How it is done: as §1

Data set [5] addresses T4, CYP2D6 (Homo sapiens, UniProt P10635).
T4 construct: tissue Eurofins Cerep (CRO); host or cells: human liver microsomes
Nature of the data set: CYP inhibition in human liver microsomes. The note with it: read-out: CYPs inhibition CYP2D6. Format: in vitro ADME. How it is done: as §1

The target of data set [6] is T5, CYP1A (Homo sapiens, UniProt P05177).
T5 construct: tissue Eurofins Cerep (CRO); host or cells: human liver microsomes
T5 sequence (P05177 2-516 limits assumed): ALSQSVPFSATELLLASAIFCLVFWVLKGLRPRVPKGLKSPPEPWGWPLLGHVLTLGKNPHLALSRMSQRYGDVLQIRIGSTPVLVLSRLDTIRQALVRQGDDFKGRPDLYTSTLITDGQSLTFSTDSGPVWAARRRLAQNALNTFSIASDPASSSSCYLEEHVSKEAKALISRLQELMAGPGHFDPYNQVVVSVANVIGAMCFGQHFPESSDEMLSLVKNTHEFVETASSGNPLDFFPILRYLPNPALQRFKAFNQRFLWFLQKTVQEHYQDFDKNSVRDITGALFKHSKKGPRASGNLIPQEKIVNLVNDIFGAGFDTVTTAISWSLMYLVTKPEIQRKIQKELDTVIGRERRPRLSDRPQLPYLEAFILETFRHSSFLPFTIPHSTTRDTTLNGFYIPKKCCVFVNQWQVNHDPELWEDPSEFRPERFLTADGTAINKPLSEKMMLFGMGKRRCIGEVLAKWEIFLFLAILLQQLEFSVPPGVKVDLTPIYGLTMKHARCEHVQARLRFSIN
Put plainly: CYP inhibition in human liver microsomes. Type of data set: in vitro ADME. The following applies: read-out: CYPs inhibition CYP1A. On the procedure: as §1

Data set [7] concerns the target T6, CYP2B6 (Homo sapiens, UniProt P20813).
T6 construct: tissue Eurofins Cerep (CRO); host or cells: human liver microsomes
Put plainly: CYP inhibition in human liver microsomes. Type of data set: in vitro ADME. The note with it: read-out: CYPs inhibition CYP2B6. How it is done:
as §1

Data set [8] concerns the target OAT3 (Homo sapiens, UniProt Q8TCC7). Nature of the data set: Drug transporter inhibition (SLC family). Format: in vitro ADME. The note with it: transporter-overexpressing cell lines, read-out: Drug transporters inhibition OAT3. How it is done: as §1
For data set [9], the target named is OATP1B1 (Homo sapiens, UniProt Q9Y6L6). Put plainly: Drug transporter inhibition (SLC family). Type of data set: in vitro ADME. The note with it: transporter-overexpressing cell lines, read-out: Drug transporters inhibition OATP1B1. On the procedure: as §1
The target in data set [10] is OCT2 (Homo sapiens, UniProt O15244). Put plainly: Drug transporter inhibition (SLC family). Format: in vitro ADME. The following applies: transporter-overexpressing cell lines, read-out: Drug transporters inhibition OCT2. On the procedure: as §1
OCT2, sequence (O15244 whole entry): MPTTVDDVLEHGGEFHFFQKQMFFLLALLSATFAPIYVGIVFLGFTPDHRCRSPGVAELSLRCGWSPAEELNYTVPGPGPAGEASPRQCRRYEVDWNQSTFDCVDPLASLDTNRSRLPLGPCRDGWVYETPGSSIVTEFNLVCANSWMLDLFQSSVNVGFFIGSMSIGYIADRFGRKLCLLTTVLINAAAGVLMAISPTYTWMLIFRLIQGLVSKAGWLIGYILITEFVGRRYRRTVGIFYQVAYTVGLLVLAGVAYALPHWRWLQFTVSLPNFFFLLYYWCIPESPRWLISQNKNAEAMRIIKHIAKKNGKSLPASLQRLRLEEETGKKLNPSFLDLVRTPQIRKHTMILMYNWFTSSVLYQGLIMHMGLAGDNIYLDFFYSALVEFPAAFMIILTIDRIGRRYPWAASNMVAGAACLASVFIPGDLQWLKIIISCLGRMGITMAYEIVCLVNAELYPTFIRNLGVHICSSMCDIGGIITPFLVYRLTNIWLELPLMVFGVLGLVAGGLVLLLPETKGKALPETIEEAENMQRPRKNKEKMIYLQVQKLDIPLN
Data set [11] has as its target ABST (Homo sapiens, UniProt Q12908). Nature of the data set: Drug transporter inhibition (SLC family). Type of data set: in vitro ADME. The note with it: read-out: Drug transporters inhibition ABST. On the procedure:
as §1

Data set [12] has as its target OAT1 (Homo sapiens, UniProt Q4U2R8). Nature of the data set: Drug transporter inhibition (SLC family). Type of data set: in vitro ADME. The following applies: transporter-overexpressing cell lines, read-out: Drug transporters inhibition OAT1. How it is done:
as §1

Data set [13] addresses NTCP (Homo sapiens, UniProt Q14973). Nature of the data set: Drug transporter inhibition (SLC family). The note with it: read-out: Drug transporters inhibition NTCP. Format: in vitro ADME. On the procedure:
as §1

Data set [14] addresses OATP1B3 (Homo sapiens, UniProt Q9NPD5). Put plainly: Drug transporter inhibition (SLC family). Type of data set: in vitro ADME. The note with it: transporter-overexpressing cell lines, read-out: Drug transporters inhibition OATP1B3. How it is done: as §1
Data set [15] concerns the target OCT1 (Homo sapiens, UniProt O15245). Put plainly: Drug transporter inhibition (SLC family). Type of data set: in vitro ADME. The note with it: transporter-overexpressing cell lines, read-out: Drug transporters inhibition OCT1. How it is done:
as §1

Data set [16] in a line: Microsomal stability in mouse liver microsomes. The note with it: mLM; for Compound Remaining (1 h, %): 10 µM; for half-life at 10 µM / microsomal CLint at 10 µM: mouse, liver microsomes. Type of data set: in vitro ADME. On the procedure:
Metabolic stability analysis (mouse and human liver microsomes) was performed by Eurofins Cerep (Poitiers, France) at 10 µM as described in [55]. Results were obtained at 15, 30, 45 and 60 min. Results were expressed as percent of the parent compound remaining, and calculated by comparing the peak area of the compound at the time point relative to that at time 0. The half-life (t1/2) and the apparent intrinsic clearance (CLint) were evaluated.

For data set [17], the system named is HepG2. Nature of the data set: Cytotoxicity analysis in HepG2 cells. Type of data set: cell-based, human. The following applies: % at 10 µM. How it is done:
Cytotoxicity analysis was performed by Eurofins Cerep (Poitiers, France) according to [74]. Compound 7i was evaluated at 10 µM in the HepG2 cell line. Cell number, nuclear size, mitochondrial membrane potential, intracellular free calcium and membrane permeability were analyzed. % inhibition or % increase were calculated.

Where [18] appears, read: PBS pH 7.4, pH 7.4, aqueous buffer, read-out: Solubility PBS pH7.4.
The mark [19] stands for this setting: simulated gastric fluid (SGF), simulated gastric fluid, read-out: Solubility SGF.
Where [20] appears, read: simulated intestinal fluid (SIF), fassgf or other biorelevant, read-out: Solubility SIF.

≈ marks a conversion by molar mass, not a printed value. Like-named read-outs stand apart in the source and are kept apart here. A value given as a limit tells only on which side of the number the result lay.

T6 sequence (P20813 whole entry): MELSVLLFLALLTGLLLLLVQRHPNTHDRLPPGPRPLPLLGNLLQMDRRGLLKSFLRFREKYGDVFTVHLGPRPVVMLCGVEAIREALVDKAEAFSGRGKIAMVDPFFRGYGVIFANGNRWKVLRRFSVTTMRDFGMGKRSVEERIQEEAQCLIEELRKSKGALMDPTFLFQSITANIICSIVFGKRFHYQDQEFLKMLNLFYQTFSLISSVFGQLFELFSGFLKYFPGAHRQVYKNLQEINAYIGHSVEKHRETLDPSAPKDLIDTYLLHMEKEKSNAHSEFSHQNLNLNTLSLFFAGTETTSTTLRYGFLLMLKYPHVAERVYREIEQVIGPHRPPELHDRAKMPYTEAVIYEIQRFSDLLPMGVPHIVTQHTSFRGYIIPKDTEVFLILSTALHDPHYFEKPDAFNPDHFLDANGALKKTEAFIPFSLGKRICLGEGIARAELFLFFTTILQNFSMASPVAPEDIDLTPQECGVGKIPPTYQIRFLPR
OAT3, sequence (Q8TCC7 whole entry): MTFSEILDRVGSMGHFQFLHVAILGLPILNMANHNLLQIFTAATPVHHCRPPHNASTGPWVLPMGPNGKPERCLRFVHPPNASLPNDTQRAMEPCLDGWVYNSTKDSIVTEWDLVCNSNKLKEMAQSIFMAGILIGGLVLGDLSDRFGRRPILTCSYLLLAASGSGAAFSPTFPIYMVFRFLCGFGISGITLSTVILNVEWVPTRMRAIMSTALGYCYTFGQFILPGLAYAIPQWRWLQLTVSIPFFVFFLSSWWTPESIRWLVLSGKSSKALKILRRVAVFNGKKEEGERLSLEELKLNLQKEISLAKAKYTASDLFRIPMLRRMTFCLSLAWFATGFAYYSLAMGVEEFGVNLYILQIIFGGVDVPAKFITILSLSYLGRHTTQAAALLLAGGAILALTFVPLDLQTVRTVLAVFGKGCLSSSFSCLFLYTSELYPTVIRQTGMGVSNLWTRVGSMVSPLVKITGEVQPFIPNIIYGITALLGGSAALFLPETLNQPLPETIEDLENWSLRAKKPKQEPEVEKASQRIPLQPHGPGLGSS
ABST, sequence (Q12908 whole entry): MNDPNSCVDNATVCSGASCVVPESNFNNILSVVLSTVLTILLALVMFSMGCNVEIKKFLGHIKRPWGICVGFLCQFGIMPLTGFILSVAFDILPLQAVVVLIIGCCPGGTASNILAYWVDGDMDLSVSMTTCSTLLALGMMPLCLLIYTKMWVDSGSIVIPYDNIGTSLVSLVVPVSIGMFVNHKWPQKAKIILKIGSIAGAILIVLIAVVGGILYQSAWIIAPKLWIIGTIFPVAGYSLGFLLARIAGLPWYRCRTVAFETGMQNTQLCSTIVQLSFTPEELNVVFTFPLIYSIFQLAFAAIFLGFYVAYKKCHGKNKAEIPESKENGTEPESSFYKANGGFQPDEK
NTCP, sequence (Q14973 whole entry): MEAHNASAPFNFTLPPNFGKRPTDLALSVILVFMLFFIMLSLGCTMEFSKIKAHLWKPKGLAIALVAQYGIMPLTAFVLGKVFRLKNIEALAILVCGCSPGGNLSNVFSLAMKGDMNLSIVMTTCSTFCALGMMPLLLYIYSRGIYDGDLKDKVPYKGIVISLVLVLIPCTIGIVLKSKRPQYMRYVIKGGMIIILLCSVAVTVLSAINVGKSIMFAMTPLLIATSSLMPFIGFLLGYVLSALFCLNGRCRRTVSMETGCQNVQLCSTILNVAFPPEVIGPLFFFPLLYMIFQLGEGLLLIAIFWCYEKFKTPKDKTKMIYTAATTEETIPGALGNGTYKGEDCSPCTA
OAT1, sequence (Q4U2R8 whole entry): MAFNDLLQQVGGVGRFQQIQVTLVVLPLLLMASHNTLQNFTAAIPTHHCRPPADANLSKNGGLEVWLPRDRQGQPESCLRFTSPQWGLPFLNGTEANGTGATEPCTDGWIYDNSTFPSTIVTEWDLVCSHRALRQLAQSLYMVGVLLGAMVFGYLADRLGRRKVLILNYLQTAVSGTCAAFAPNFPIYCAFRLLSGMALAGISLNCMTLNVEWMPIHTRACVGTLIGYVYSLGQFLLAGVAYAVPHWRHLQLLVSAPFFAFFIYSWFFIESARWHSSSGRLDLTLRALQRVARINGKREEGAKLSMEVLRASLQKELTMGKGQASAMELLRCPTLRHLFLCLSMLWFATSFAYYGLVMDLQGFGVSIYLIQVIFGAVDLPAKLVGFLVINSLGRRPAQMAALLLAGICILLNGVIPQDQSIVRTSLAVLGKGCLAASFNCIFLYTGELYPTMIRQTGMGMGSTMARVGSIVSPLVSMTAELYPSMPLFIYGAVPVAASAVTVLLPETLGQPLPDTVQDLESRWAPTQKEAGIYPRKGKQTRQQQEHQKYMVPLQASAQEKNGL
OATP1B3, sequence (Q9NPD5 whole entry): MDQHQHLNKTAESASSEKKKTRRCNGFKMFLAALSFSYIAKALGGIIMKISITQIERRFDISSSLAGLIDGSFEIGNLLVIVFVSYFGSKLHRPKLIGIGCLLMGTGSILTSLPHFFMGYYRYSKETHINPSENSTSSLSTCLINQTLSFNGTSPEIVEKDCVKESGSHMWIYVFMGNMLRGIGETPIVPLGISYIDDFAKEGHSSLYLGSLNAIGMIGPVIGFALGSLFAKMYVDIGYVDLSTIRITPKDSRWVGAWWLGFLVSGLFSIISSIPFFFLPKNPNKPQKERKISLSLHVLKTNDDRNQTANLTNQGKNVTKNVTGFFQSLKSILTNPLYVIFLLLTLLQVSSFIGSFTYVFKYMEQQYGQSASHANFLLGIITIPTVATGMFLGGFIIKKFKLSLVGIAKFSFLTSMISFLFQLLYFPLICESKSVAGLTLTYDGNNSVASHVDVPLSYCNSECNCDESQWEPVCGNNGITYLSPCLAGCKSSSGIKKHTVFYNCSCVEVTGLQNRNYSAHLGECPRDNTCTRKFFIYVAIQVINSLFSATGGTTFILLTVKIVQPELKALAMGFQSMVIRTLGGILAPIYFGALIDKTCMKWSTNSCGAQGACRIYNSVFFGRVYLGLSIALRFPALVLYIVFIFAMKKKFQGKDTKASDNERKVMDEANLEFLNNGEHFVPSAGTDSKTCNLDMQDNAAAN

Regarding `O=C(NCCCNCc1ccccc1)c1ccc(Cl)cc1` [compound 7i-deMe], the values for the solubility in data set [1] (setting [18]), in data set [1] (setting [19]) and in data set [1] (setting [20]) were 187 µM (≈ 56.6 µg/mL), 197 µM (≈ 59.7 µg/mL) and 196 µM (≈ 59.3 µg/mL), respectively. For the same compound, the inhibition at 10 µM in data set [2] was -7.2%; in data set [3] it was 5.9%; in data set [4] it was 18.4%; in data set [5], 91.6%; in [6], 9.4%; in [7], 15.9%. In addition, the inhibition at 10 µM in data set [8] was 18.7%; in [9] it was 8.6%; in [10], 85.8%; in data set [11] it was 5%; in data set [12] it was -6.2%; in data set [13] it was 8.7%. The inhibition at 10 µM is 19.1% in [14] and 64.6% in data set [15]. In addition, in data set [16], the “Compound Remaining (1 h, %)” value was determined as 80%. Also, in [16], the half-life at 10 µM is more than 3 h. The compound further showed a microsomal CLint at 10 µM in data set [16] of less than 115 µL/min/mg.
`CN(CCCNC(=O)c1ccc(Cl)cc1)Cc1ccccc1` [compound 7i]: the solubility was 185 µM (≈ 58.6 µg/mL) in data set [1] (setting [18]), 193 µM (≈ 61.1 µg/mL) in data set [1] (setting [19]) and 188 µM (≈ 59.6 µg/mL) in data set [1] (setting [20]). Further, in [17], the “HepG2 Cell number” value was −3%. Moreover, the “HepG2 Intracell free calcium” value in [17] was 0%. In addition, the “HepG2 Membrane permeability” value in data set [17] came out at 0%. Also, the “HepG2 Mitochondrial membrane potential” value in data set [17] was 5%. For the same compound, the “HepG2 Nuclear size” value in data set [17] is 9%. Besides, the inhibition at 10 µM in [2] was -9.2%; in data set [3], -7.2%; in data set [4] it was 36.5%; in data set [5], 95.1%; in [6], 2.1%; in [7], -4.3%. Also, the inhibition at 10 µM in data set [8] was 34.3%; in data set [9], 12%; in [10] it was 49.4%; in [11], 5.3%; in [12] it was -9.6%; in data set [13], -1.7%. In addition, the inhibition at 10 µM stood at 23.1% in data set [14] and 41.2% in data set [15]. Further, in [16], the “Compound Remaining (1 h, %)” value worked out at 54%. In addition, the half-life at 10 µM in [16] was more than 1 h. Moreover, the microsomal CLint at 10 µM in data set [16] was less than 115 µL/min/mg.

Values taken from article PMC9569529, “Safe and Efficient Sigma1 Ligand: A Potential Drug Candidate for Multiple Sclerosis” (International Journal of Molecular Sciences, 2022).
